Patent publication US9586951B2 (FUJIFILM Corporation, priority 2013, dated 2017)

Target: T1, ATM (Homo sapiens, UniProt Q13315)
T1 construct: detecting phosphorylation of Chk2 in a human non-small cell lung cancer cell line NCI-H460 (ATCC company); host or cells: NCI-H460 human non-small cell lung cancer cells
Experiment: ATM inhibition test (phosphorylation of Chk2 generated by ionizing radiation, AlphaScreen SureFire)
Format: cell-based
Conditions: phosphorylated Chk2 in NCI-H460 cells, ionizing radiation 8Gy, 1 hour after test compound treatment; read-out: ATM inhibitory activity
Procedure, shortened: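 In NCI-H460 cells, radiation-triggered Chk2 phosphorylation (8Gy, 1 h) is detected by AlphaScreen SureFire following 1 h compound exposure.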

T1 sequence (Q13315 whole entry): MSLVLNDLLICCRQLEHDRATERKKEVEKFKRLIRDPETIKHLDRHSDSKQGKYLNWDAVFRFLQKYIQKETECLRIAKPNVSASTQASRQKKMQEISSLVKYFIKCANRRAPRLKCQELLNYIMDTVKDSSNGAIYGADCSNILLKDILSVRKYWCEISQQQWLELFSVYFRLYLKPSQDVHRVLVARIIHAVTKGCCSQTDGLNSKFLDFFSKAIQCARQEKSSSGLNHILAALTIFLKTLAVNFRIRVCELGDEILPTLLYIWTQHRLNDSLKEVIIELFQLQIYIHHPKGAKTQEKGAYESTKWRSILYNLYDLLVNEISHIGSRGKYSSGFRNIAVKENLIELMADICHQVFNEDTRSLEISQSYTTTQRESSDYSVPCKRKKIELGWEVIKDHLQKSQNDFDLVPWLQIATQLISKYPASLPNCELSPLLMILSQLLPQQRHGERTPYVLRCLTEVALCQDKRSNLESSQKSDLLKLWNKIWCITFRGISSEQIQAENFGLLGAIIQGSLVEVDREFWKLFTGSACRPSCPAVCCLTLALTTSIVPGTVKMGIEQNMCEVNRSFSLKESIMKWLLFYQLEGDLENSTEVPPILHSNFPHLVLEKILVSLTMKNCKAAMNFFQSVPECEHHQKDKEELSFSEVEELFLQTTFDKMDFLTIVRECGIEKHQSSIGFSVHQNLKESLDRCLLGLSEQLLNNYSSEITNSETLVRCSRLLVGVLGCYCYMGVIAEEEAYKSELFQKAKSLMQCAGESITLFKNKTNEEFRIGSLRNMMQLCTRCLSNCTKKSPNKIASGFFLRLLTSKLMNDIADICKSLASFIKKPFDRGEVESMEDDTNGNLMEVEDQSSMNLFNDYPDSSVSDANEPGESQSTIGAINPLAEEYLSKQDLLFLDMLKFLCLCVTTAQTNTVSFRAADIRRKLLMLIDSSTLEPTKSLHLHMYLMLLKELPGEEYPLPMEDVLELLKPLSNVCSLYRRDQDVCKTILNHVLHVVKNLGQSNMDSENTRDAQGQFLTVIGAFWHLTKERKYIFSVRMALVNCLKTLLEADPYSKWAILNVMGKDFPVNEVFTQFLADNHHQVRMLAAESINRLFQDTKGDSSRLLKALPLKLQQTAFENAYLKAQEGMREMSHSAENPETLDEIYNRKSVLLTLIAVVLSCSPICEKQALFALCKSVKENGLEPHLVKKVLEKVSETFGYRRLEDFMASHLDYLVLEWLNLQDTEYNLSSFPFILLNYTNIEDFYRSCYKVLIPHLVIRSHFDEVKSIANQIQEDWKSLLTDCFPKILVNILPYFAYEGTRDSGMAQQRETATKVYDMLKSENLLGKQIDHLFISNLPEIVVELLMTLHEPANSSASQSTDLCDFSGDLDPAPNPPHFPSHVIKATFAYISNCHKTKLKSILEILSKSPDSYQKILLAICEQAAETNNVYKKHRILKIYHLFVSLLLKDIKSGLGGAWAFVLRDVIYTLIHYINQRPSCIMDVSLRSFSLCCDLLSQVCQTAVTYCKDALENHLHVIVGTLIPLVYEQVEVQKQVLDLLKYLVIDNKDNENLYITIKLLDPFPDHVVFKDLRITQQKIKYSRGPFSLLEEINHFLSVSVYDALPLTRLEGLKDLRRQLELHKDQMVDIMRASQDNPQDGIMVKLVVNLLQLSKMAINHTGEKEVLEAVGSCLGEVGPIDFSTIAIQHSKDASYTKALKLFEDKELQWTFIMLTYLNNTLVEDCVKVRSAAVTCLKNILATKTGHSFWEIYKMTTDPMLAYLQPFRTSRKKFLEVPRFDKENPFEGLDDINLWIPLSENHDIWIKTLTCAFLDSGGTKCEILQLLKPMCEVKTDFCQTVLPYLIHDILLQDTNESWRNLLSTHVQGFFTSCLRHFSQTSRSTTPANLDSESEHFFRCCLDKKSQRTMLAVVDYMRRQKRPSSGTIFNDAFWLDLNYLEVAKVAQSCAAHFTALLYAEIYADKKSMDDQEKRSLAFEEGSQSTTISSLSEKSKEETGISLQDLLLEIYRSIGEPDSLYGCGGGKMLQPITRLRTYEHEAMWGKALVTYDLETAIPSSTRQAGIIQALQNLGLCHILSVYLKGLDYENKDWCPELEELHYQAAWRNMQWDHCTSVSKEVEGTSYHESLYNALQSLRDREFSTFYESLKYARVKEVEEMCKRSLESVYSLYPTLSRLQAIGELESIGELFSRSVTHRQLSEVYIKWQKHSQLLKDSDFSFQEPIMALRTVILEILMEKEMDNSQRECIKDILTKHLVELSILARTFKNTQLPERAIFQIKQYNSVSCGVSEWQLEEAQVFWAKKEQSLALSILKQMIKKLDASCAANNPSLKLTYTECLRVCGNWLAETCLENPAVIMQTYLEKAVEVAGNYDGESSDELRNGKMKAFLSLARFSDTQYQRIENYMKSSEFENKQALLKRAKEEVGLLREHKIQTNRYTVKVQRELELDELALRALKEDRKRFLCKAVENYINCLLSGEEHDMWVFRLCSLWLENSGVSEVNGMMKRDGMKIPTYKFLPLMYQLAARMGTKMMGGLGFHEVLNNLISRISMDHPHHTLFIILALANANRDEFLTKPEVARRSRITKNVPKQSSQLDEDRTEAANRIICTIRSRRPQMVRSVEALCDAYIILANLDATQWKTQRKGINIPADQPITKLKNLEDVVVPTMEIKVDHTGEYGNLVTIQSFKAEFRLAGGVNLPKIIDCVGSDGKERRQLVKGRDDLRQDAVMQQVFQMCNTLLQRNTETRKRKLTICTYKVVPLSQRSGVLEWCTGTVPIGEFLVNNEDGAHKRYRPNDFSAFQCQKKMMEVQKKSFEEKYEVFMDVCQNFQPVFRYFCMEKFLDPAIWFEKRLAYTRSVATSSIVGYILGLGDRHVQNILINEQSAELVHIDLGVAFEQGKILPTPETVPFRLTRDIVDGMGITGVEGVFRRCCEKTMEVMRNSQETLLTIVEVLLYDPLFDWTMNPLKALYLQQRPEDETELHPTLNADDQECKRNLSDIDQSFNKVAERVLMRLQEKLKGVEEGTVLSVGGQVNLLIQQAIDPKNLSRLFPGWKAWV

Row | SMILES | IC50
1 | CCCC(Nc1ccc2c(c1)Sc1cccc(-c3cc(N4CCOCC4)cc(=O)[nH]3)c1S2)c1ccc(C)cn1 (stereo not shown) [Example 1-12-119, 6-(7-((1-(5-Methylpyridin-2-yl)butyl)amino)thianthren-1-yl)-4-morpholino pyridin-2 (1H)-one] | 100 to 500 nM
2 | CC[C@@H](C(C)Nc1ccc2c(c1)Sc1cccc(-c3cc(N4CCOCC4)cc(=O)[nH]3)c1S2)N1CCOCC1 (stereo partly drawn) [Example 1-21-3, 4-Morpholino-6-(7-(((3S)-3-morpholinopentan-2-yl)amino)thianthren-1-yl) pyridin-2(1H)-one] | 100 to 500 nM
3 | Cc1ccc(CNc2ccc3c(c2)Sc2cccc(-c4cc(N5CCOCC5)cc(=O)[nH]4)c2S3)s1 [Example 1-12-57, 6-(7-(((5-Methylthiophen-2-yl)methyl)amino)thianthren-1-yl)-4-morpholino pyridin-2 (1H)-one] | 100 to 500 nM
4 | O=c1cc(N2CCOCC2)cc(-c2cccc3c2Sc2ccc(NCCCN4CCOCC4)cc2S3)[nH]1 [Example 1-9-3, 4-Morpholino-6-(7-((3-morpholinopropyl)amino)thianthren-1-yl)pyridin-2(1H)-one] | < 100 nM
5 | COCCN1CCOC(C(Nc2ccc3c(c2)Sc2cccc(-c4cc(N5CCOCC5)cc(=O)[nH]4)c2S3)c2ccc(C)cn2)C1 (single isomer, unassigned) [Example 1-56-8, 6-(7-(((4-(2-Methoxyethyl)morpholin-2-yl)(5-methylpyridin-2-yl)methyl)amino)thianthren-1-yl)-4-morpholino pyridin-2(1H)-one] | < 100 nM
6 | Cc1ccc(C(Nc2ccc3c(c2)Sc2cccc(-c4cc(N5CCOCC5)cc(=O)[nH]4)c2S3)[C@@H]2CCN(C)C2)nc1 (single isomer, unassigned) [Example 1-56-16] | < 100 nM
7 | CC(CN1CCN(Cc2ccncc2)CC1)Nc1ccc2c(c1)Sc1cccc(-c3cc(N4CCOCC4)cc(=O)[nH]3)c1S2 (stereo not shown) [Example 1-15-4, 4-Morpholino-6-(7-((1-(4-(pyridin-4-ylmethyl)piperazin-1-yl)propan-2-yl)amino)thianthren-1-yl)pyridin-2(1H)-one] | 100 to 500 nM
8 | O=c1cc(N2CCOCC2)cc(-c2cccc3c2Oc2ccc(NCc4ccc(OC5CCOCC5)nc4)cc2C3)[nH]1 [Example 2-2-4, 4-Morpholino-6-(7-(((6-((tetrahydro-2H-pyran-4-yl)oxy)pyridin-3-yl)methyl)amino)-9H-xanthen-4-yl)pyridin-2 (1H)-one] | 500 to 2000 nM
9 | O=c1cc(N2CCOCC2)cc(-c2cccc3c2Sc2ccc(N[C@@H]4COC[C@@H]4N4CCOCC4)cc2S3)[nH]1 (relative stereo) [Example 1-61, cis-4-morpholino-6-(7-((4-morpholinotetrahydrofuran-3-yl)amino)thianthren-1-yl)pyridin-2(1 H)-one] | < 100 nM
10 | CC(CN(C)C1CCCCC1)Nc1ccc2c(c1)Sc1cccc(-c3cc(N4CCOCC4)cc(=O)[nH]3)c1S2 (stereo not shown) [Example 1-13-9, 6-(7-((1-(Cyxlohexyl(methyl)amino)propan-2-yl)amino)thianthren-1-yl)-4-morpholino pyridin-2(1H)-one] | 100 to 500 nM
11 | O=c1cc(N2CCOCC2)cc(-c2cccc3c2Sc2ccc(NC4CCN(CC(F)(F)F)CC4)cc2S3)[nH]1 [Example 1-25, 4-morpholino-6-(7-((1-(2,2,2-trifluoroethyl)piperidin-4-yl)amino)thianthren-1-yl)pyridin-2(1H)-one] | 100 to 500 nM
12 | Cc1cc(CNc2ccc3c(c2)Sc2cccc(-c4cc(N5CCOCC5)cc(=O)[nH]4)c2S3)ccn1 [Example 1-44-3, 6-(7-(((2-Methylpyridin-4-yl)methyl)amino)thianthren-1-yl)-4-morpholino pyridin-2(1H)-one] | 100 to 500 nM

Second part, the compound after the results:

Row | IC50 | SMILES
13 | 500 to 2000 nM | COc1cccc(CNc2ccc3c(c2)Cc2ccnc(-c4cc(N5CCOCC5)cc(=O)[nH]4)c2O3)n1 [Example 2-42-7, 6-(7-(((6-Methoxypyridin-2-yl)methyl)amino)-5H-chromeno[2,3-c]pyridin-1-yl)-4-morpholinopyridin-2(1H)-one]
14 | 100 to 500 nM | CC(Nc1ccc2c(c1)Cc1cccc(-c3cc(N4CCOCC4)cc(=O)[nH]3)c1O2)c1nccc(CF)n1 (stereo not shown) [Example 2-14-64, 6-(7-((1-(4-(Fluoromethyl)pyrimidin-2-yl)ethyl)amino)-9H-xanthen-4-yl)-4-morpholino pyridin-2(1H)-one]
15 | 100 to 500 nM | Cc1cc(C)nc(CNc2ccc3c(c2)Cc2cccc(-c4cc(N5CCOCC5)cc(=O)[nH]4)c2O3)c1 [Example 2-14-15, 6-(7-(((4,6-Dimethylpyridin-2-yl)methyl)amino)-9H-xanthen-4-yl)-4-morpholino pyridin-2 (1H)-one]
16 | 100 to 500 nM | Cc1nccc(C(C)Nc2ccc3c(c2)Cc2cccc(-c4cc(N5CCOCC5)cc(=O)[nH]4)c2O3)n1 (stereo not shown) [Example 2-14-48, 6-(7-((1-(2-Methylpyrimidin-4-yl)ethyl)amino)-9H-xanthen-4-yl)-4-morpholino pyridin-2 (1H)-one]
17 | 500 to 2000 nM | O=c1cc(N2CCOCC2)cc(-c2cccc3c2Oc2ccc(NCc4ccc(CO)o4)cc2C3)[nH]1 [Example 2-13-3, 6-(7-(((5-(Hydroxymethyl)furan-2-yl)methyl)amino)-9H-xanthen-4-yl)-4-morpholino pyridin-2(1H)-one]
18 | 100 to 500 nM | Cc1ccnc(C(C)Nc2ccc3c(c2)Cc2cccc(-c4cc(N5CCOCC5)cc(=O)[nH]4)c2O3)c1 (single isomer, unassigned) [Example 2-14-93-1, 6-(7-((1-(4-methylpyridin-2-yl)ethyl)amino)-9H-xanthen-4-yl)-4-morpholinopyridin-2(1H)-one]
19 | 100 to 500 nM | O=c1cc(N2CCOCC2)cc(-c2cccc3c2Oc2ccc(NCCCc4cccnc4)cc2C3)[nH]1 [Example 2-14-14, 4-Morpholino-6-(7-((3-(pyridin-3-yl)propyl)amino)-9H-xanthen-4-yl) pyridin-2(1H)-one]
20 | 100 to 500 nM | CC(Nc1ccc2c(c1)Cc1cccc(-c3cc(N4CCOCC4)cc(=O)[nH]3)c1O2)c1cc(Cl)ncn1 (stereo not shown) [Example 2-14-59, 6-(7-((1-(6-Chloropyrimidin-4-yl)ethyl)amino)-9H-xanthen-4-yl)-4-morpholino pyridin-2(1H)-one]
21 | 100 to 500 nM | COc1cnccc1CNc1ccc2c(c1)Sc1cccc(-c3cc(N4CCOCC4)cc(=O)[nH]3)c1O2 [Example 4-4-23, 6-(8-(((3-Methoxypyridin-4-yl)methyl)amino)phenoxathiin-4-yl)-4-morpholino pyridin-2(1H)-one]
22 | < 100 nM | N#Cc1ccc(CNc2ccc3c(c2)Cc2cccc(-c4cc(N5CCOCC5)cc(=O)[nH]4)c2O3)s1 [Example 2-14-32, 6-(7-(((5-Isocycanothiophen-2-yl)methyl)amino)-9H-xanthen-4-yl)-4-morpholino pyridin-2(1H)-one]
23 | 500 to 2000 nM | COc1ncccc1CNc1ccc2c(c1)Cc1cccc(-c3cc(N4CCOCC4)cc(=O)[nH]3)c1S2 [Example 3-8-8, 6-(7-(((2-Methoxypyridin-3-yl)methyl)amino)-9H-thioxanthen-4-yl)-4-morpholino pyridin-2 (1H)-one]
24 | 100 to 500 nM | Nc1ccc2c(c1)Sc1cccc(-c3cc(N4CCOCC4)cc(=O)[nH]3)c1O2 [Example 4-2, 6-(8-Aminophenoxathiin-4-yl)-4-morpholinopyridin-2(1H)-one]
25 | 100 to 500 nM | O=c1cc(N2CCOCC2)cc(-c2cccc3c2Oc2ccc(NCc4ccc(-n5cccn5)nc4)cc2C3)[nH]1 [Example 2-2-31, 6-(7-(((6-(1H-Pyrazol-1-yl)pyridin-3-yl)methyl)amino)-9H-xanthen-4-yl)-4-morpholino pyridin-2(1H)-one]
